In US11472799B2, “Serine threonine kinase (AKT) degradation / disruption compounds and methods of use” (Icahn School of Medicine at Mount Sinai, priority 2018, dated 2022):

Test system: AKT
Experiment: Western blot of AKT protein levels and downstream signaling in BT474 cells
Format: cell-based, human
Conditions: Western blot (FIGS. 1, 3, 4)
Procedure: PC-3, U87MG, HCC1143, MDA-MB-231, MDA-MB-468, BT474 and MCF-7 cell lines were purchased from ATCC. Cell lines were regularly tested in the lab for mycoplasma. All cells were cultured at 37° C. and 5% CO2. PC-3, U87MG, MDA-MB-231, MCF-7 and BT474 cells were cultured in 1×DMEM (Corning, 10-013-CV) with 10% fetal bovine serum (Atlanta Biologicals S11150) and 1× Penicillin/Streptomycin. HCC1143 cells were cultured in RPMI (Corning, 10-040-CV) medium with 10% fetal bovine serum (Atlanta Biologicals S11150) and 1× Penicillin/Streptomycin. Cells were split using 0.05% or 0.25% trypsin (Corning 25-051-Cl or 25-053-Cl, respectively) before they reached full confluence and media was changed every 3-4 days. Cells were treated with compounds individually at different concentrations for 24 hrs. Cells were treated with DMSO, VHL, or PML alone as controls.
Cells were lysed in 2× sample buffer (125 mM Tris-HCl at pH 6.8, 10% βME, 2% SDS, 20% glycerol, 0.05% Bromophenol Blue, 8 M urea). Protein lysates were loaded into 4-12% Bis-Tris gels and resolved by electrophoresis. Samples were then blotted on PVDF membrane (Millipore IPVH00010) using the wet transfer technique (Invitrogen). Membranes were blocked in 5% milk-TBST for 1 hour, washed in TBST for 10 min, and incubated in primary antibody in 5% milk-TBST or 5% BSA-TBST at 4° C. for 16 h. Membranes were rinsed (3×6 min) in TBST and incubated in horseradish peroxidase-conjugated secondary antibodies in 5% milk-TBST for 1 hour and rinsed again in TBST (3×6 min). Membranes were visualized using the chemiluminescence system (Thermo 34080, 37075) on autoradiography film (Denville E3018). Primary Antibodies: R-actin (Sigma A5316), p-AKT (Ser473 CST-9721), total AKT (CST-9272), p-S6 (Ser240/244, CST-5364), p-PRAS40 (Thr246, CST-2997). Secondary Antibodies: Mouse (Thermo 31432), Rabbit (Thermo 31460).

Row | Compound | suppression of AKT protein level and AKT activity
1 | Cc1ncsc1-c1ccc(CNC(=O)[C@@H]2C[C@@H](O)CN2C(=O)[C@@H](NC(=O)CCCCCCC(=O)N2CCN(CC[C@H](NC(=O)C3(N)CCN(c4ncnc5[nH]ccc45)CC3)c3ccc(Cl)cc3)CC2)C(C)(C)C)cc1 [XF050-18, 4-amino-N-((S)-1-(4-chlorophenyl)-3-(4-(8-(((S)-1-((2S,4R)-4-hydroxy-2-((4-(4-methylthiazol-5-yl)benzyl)carbamoyl)pyrrolidin-1-yl)-3,3-dimethyl-1-oxobutan-2-yl)amino)-8-oxooctanoyl)piperazin-1-yl)propyl)-1-(7H-pyrrolo[2,3-d]pyrimidin-4-yl)piperidine-4-carboxamide] | effective in suppressing both AKT protein level and AKT activity
2 | Cc1ncsc1-c1ccc(CNC(=O)[C@@H]2C[C@@H](O)CN2C(=O)[C@@H](NC(=O)CCCCC(=O)N2CCN(CC[C@H](NC(=O)C3(N)CCN(c4ncnc5[nH]ccc45)CC3)c3ccc(Cl)cc3)CC2)C(C)(C)C)cc1 [XF050-16, 4-amino-N-((S)-1-(4-chlorophenyl)-3-(4-(6-(((S)-1-((2S,4R)-4-hydroxy-2-((4-(4-methylthiazol-5-yl)benzyl)carbamoyl)pyrrolidin-1-yl)-3,3-dimethyl-1-oxobutan-2-yl)amino)-6-oxohexanoyl)piperazin-1-yl)propyl)-1-(7H-pyrrolo[2,3-d]pyrimidin-4-yl)piperidine-4-carboxamide] | effective in suppressing both AKT protein level and AKT activity
3 | C[C@@H]1C[C@@H](O)c2ncnc(N3CCN(C(=O)[C@H](CNCCC(=O)NCCCCCCCNc4cccc5c4C(=O)N(C4CCC(=O)NC4=O)C5=O)c4ccc(Cl)cc4)CC3)c21 (stereo partly drawn) [XF048-5, 3-(((S)-2-(4-chlorophenyl)-3-(4-((5R,7R)-7-hydroxy-5-methyl-6,7-dihydro-5H-cyclopenta[d]pyrimidin-4-yl)piperazin-1-yl)-3-oxopropyl)amino)-N-(7-((2-(2,6-dioxopiperidin-3-yl)-1,3-dioxoisoindolin-4-yl)amino)heptyl)propanamide] | effective in suppressing both AKT protein level and AKT activity
4 | C[C@@H]1C[C@@H](O)c2ncnc(N3CCN(C(=O)[C@H](CNCCC(=O)NCCCCCCCCCc4cccc5c4C(=O)N(C4CCC(=O)NC4=O)C5=O)c4ccc(Cl)cc4)CC3)c21 (stereo partly drawn) [XF056-93, 3-(((S)-2-(4-chlorophenyl)-3-(4-((5R,7R)-7-hydroxy-5-methyl-6,7-dihydro-5H-cyclopenta[d]pyrimidin-4-yl)piperazin-1-yl)-3-oxopropyl)amino)-N-(9-(2-(2,6-dioxopiperidin-3-yl)-1,3-dioxoisoindolin-4-yl)nonyl)propanamide] | effective in suppressing both AKT protein level and AKT activity
5 | Cc1ncsc1-c1ccc(CNC(=O)[C@@H]2C[C@@H](O)CN2C(=O)[C@@H](NC(=O)CCCCCCCCCCCC(=O)N2CCN(CC[C@H](NC(=O)C3(N)CCN(c4ncnc5[nH]ccc45)CC3)c3ccc(Cl)cc3)CC2)C(C)(C)C)cc1 [XF050-144, 4-amino-N-((S)-1-(4-chlorophenyl)-3-(4-(13-(((S)-1-((2S,4R)-4-hydroxy-2-((4-(4-methylthiazol-5-yl)benzyl)carbamoyl)pyrrolidin-1-yl)-3,3-dimethyl-1-oxobutan-2-yl)amino)-13-oxotridecanoyl)piperazin-1-yl)propyl)-1-(7H-pyrrolo[2,3-d]pyrimidin-4-yl)piperidine-4-carboxamide] | effective in suppressing both AKT protein level and AKT activity
6 | C[C@@H]1C[C@@H](O)c2ncnc(N3CCN(C(=O)[C@H](CNCCNC(=O)CCOCCOCCOCCOCCOCCNc4cccc5c4C(=O)N(C4CCC(=O)NC4=O)C5=O)c4ccc(Cl)cc4)CC3)c21 (stereo partly drawn) [XF048-4, N-(2-(((S)-2-(4-chlorophenyl)-3-(4-((5R,7R)-7-hydroxy-5-methyl-6,7-dihydro-5H-cyclopenta[d]pyrimidin-4-yl)piperazin-1-yl)-3-oxopropyl)amino)ethyl)-1-((2-(2,6-dioxopiperidin-3-yl)-1,3-dioxoisoindolin-4-yl)amino)-3,6,9,12,15-pentaoxaoetadecan-18-amide] | effective in suppressing both AKT protein level and AKT activity
7 | Cc1ncsc1-c1ccc(CNC(=O)[C@@H]2C[C@@H](O)CN2C(=O)[C@@H](NC(=O)CCCCCC(=O)N2CCN(CC[C@H](NC(=O)C3(N)CCN(c4ncnc5[nH]ccc45)CC3)c3ccc(Cl)cc3)CC2)C(C)(C)C)cc1 [XF050-17, 4-amino-N-((S)-1-(4-chlorophenyl)-3-(4-(7-(((S)-1-((2S,4R)-4-hydroxy-2-((4-(4-methylthiazol-5-yl)benzyl)carbamoyl)pyrrolidin-1-yl)-3,3-dimethyl-1-oxobutan-2-yl)amino)-7-oxoheptanoyl)piperazin-1-yl)propyl)-1-(7H-pyrrolo[2,3-d]pyrimidin-4-yl)piperidine-4-carboxamide] | effective in suppressing both AKT protein level and AKT activity
8 | NC1(C(=O)N[C@@H](CCN2CCN(C(=O)CCOCCOCCOCCNc3cccc4c3C(=O)N(C3CCC(=O)NC3=O)C4=O)CC2)c2ccc(Cl)cc2)CCN(c2ncnc3[nH]ccc23)CC1 (stereo partly drawn) [XF050-31, 4-amino-N-((1S)-1-(4-chlorophenyl)-3-(4-(3-(2-(2-(2-((2-(2,6-dioxopiperidin-3-yl)-1,3-dioxoisoindolin-4-yl)amino)ethoxy)ethoxy)ethoxy)propanoyl)piperazin-1-yl)propyl)-1-(7H-pyrrolo[2,3-d]pyrimidin-4-yl)piperidine-4-carboxamide] | effective in suppressing both AKT protein level and AKT activity
9 | Cc1ncsc1-c1ccc(CNC(=O)[C@@H]2C[C@@H](O)CN2C(=O)[C@@H](NC(=O)COCC(=O)N2CCN(CC[C@H](NC(=O)C3(N)CCN(c4ncnc5[nH]ccc45)CC3)c3ccc(Cl)cc3)CC2)C(C)(C)C)cc1 [XF050-5, 4-amino-N-((S)-1-(4-chlorophenyl)-3-(4-(2-(2-(((S)-1-((2S,4R)-4-hydroxy-2-((4-(4-methylthiazol-5-yl)benzyl)carbamoyl)pyrrolidin-1-yl)-3,3-dimethyl-1-oxobutan-2-yl)amino)-2-oxoethoxy)acetyl)piperazin-1-yl)propyl)-1-(7H-pyrrolo[2,3-d]pyrimidin-4-yl)piperidine-4-carboxamide] | effective in suppressing both AKT protein level and AKT activity
10 | NC1(C(=O)N[C@@H](CCN2CCN(C(=O)CCOCCOCCOCCOCCOCCOCCNc3cccc4c3C(=O)N(C3CCC(=O)NC3=O)C4=O)CC2)c2ccc(Cl)cc2)CCN(c2ncnc3[nH]ccc23)CC1 (stereo partly drawn) [XF056-33, 4-amino-N-((1S)-1-(4-chlorophenyl)-3-(4-(1-((2-(2,6-dioxopiperidin-3-yl)-1,3-dioxoisoindolin-4-yl)amino)-3,6,9,12,15,18-hexaoxahenicosan-21-oyl)piperazin-1-yl)propyl)-1-(7H-pyrrolo[2,3-d]pyrimidin-4-yl)piperidine-4-carboxamide] | effective in suppressing both AKT protein level and AKT activity
